Legend:
[1] = test system: children with HGPS; conditions: children with HGPS treated with lonafarnib; cited from earlier work
[2] = test system: plasma progerin; test: Plasma progerin (SMC progerin immunoassay) in HGPS clinical trial patients on therapy; assay type: in vivo, human
Description: An SMC ultrasensitive immunoassay for the detection of plasma progerin was developed. Overall, the assay employed a sandwich immunoassay format with an anti-lamin A capture antibody coated on magnetic microparticles, and an anti-progerin specific detection antibody conjugated to a fluorescent tag (FIG. 1) run in a 96-well plate. Progerin-bound detection antibody was eluted and read as single molecules using a confocal laser.
The SMC assay for measuring Progerin was as previously described (Todd et al.), except that magnetic microparticles (MP) coated with capture antibodies and detection reagents were specific to the progerin assay (FIG. 1). Briefly, the progerin capture antibody (mouse Mab anti-Lamin A+C, clone: 131C3 Abcam, epitope between amino acid residues 319-566, common to Lamins A, C and progerin) was coated onto MP at 25 μg antibody/mg MP. Samples were exposed to the MP-capture antibody, to specifically bind analyte, followed by one plate wash to remove unbound material. Next, fluorescently labeled progerin-specific detection antibody (Mouse Mab, clone: 13A4, from Millipore, epitope between amino acids 604 and 611 of progerin, which cross the deletion region of lamin A), pre-diluted to 2,000 ng/mL in assay buffer and then filtered through a 0.2 μm filter (MilliporeSigma), was added to wells. Plates were then washed 4 times to remove any unbound detection antibody. All MPs were then transferred from the initial 96-well assay plate to a new plate to avoid eluting any non-specific plate-bound detection antibody. Progerin-bound detection antibody was then eluted by pH shift using a proprietary glycine buffer, transferred to a new plate and detected by SMC using the Erenna Immunoassay System software (SgxLink™). The raw signal data and the interpolated value data obtained from SgxLink were transferred to Excel where precision was then calculated for the replicate wells. The acceptance specification for raw signal and interpolated values was precision and recovery bias≤20%.
A 12-point standard curve of recombinant progerin (Abcam 93918) diluted in EMD standard diluent, a synthetic serum-based solution containing a proprietary mixture of Tris buffer and carrier protein (emdmillipore.com), was run on each plate in triplicate. The standard curve was used to determine progerin concentration in unknown samples. Samples were diluted in standard diluent so that anticipated progerin fell within the dynamic range of the standard curve. All reported progerin and SD are dilution-corrected. All samples were tested in duplicate, unless triplicate is specified.
Human clinical data was obtained from The PRF International Progeria Registry, Diagnostics Program, and Medical and Research Database (available online at progeriaresearch.org). HGPS plasma and serum were obtained from The PRF Cell and Tissue Bank (available online at progeriaresearch.org). Clinical trial samples were donated to the Bank from Boston Children's Hospital (BCH) with informed consent or approval from the BCH Committee on Clinical Investigation. Trial samples were collected in a fasting state, in the morning just prior to treatment dosing as trough samples, except pK samples which were collected at trough and then at specified times post-trough. Non-trial samples were not regulated as to time of day collected. Some nonHGPS healthy human plasma samples were obtained from ProMedDx. HGPS and nonHGPS plasma sample IDs were assigned HGPI and NPI prefixes, respectively.
For analysis, samples were fully thawed at RT for <5 min, lightly mixed, diluted in standard diluent before transferring into filter plate wells (MilliporeSigma MSBVN1210). Patient plasma volumes required for analysis were 200 or 100 μl (nonHGPS 1:1 and 1:2) and 8 μl (HGPS 1:25) to generate duplicates. Filter plates with sample were centrifuged for 10 minutes to pull sample through the filters. Filtrate was then assessed as described. […]

[3] = children with HGPS treated with lonafarnib during a clinical trial; cited from earlier work
[4] = test system: patients with HGPS; test: Life expectancy versus progerin decrease and time on lonafarnib therapy (dynamic model based on cRMST); assay type: in vivo, human
Description: To quantify increase in life expectancy as it related to decrease in progerin and duration of time on lonafarnib therapy, the methodology by Yang et al. (2021), which proposes a dynamic model that utilizes a series of landmark time points (Dafni, 2011) based on the conditional restricted mean survival time (cRMST), was utilized. This analysis also adjusted for sex and age at baseline.
Next, the relationship between lonafarnib treatment duration and change in life expectancy with extent of change in plasma progerin was assessed (FIG. 7, Table 7). This analysis included samples from patients with a baseline pre-therapy and at least one on-treatment progerin measurement (N=65 patients). […] Three representative wide-ranging examples of on-therapy progerin decreases (1,000, 10,000 and 15,000 pg/mL) spanning 10 years on treatment are graphed in FIG. 7. Patient lifespan increased in all 3 examples.

NC(=O)N1CCC(CC(=O)N2CCC([C@H]3c4ncc(Br)cc4CCc4cc(Cl)cc(Br)c43)CC2)CC1 [lonafarnib]
increased survival, estimated, on average [1]: 2.5 years | average progerin, consecutive Triple Therapy vs on-treatment lonafarnib monotherapy extension visits ([2]; 10 patients, extension 4.1±0.5 years, p=0.99): no significant differences | average decreases in progerin from baseline ([2]; ProLon1, 5 remaining visits, lonafarnib 150 mg/m^2, N=22-25, all p<0.0001): 50-62% | progerin at 150 mg/m^2 lonafarnib versus the 115 mg/m^2 dose ([2]; ProLon1, each of the 4 trial visits after the 8-month visit, N=22-25, all p<0.05): significantly decreased | average progerin decrease from baseline ([2]; ProLon1, month 4, lonafarnib 115 mg/m^2, N=25, p<0.0001): 48% | average difference of progerin trough (lower) from 2-, 4- and 8-hours post-dose ([2]; ProLon1 pK samples, lonafarnib 115 mg/m^2, all p<0.05): about 3,000 pg/mL | progerin post-dose (hours 1,2,4,6,8) vs. trough levels ([2]; ProLon1 pK samples, lonafarnib 150 mg/m^2, all p≥0.05): did not demonstrate significant changes | average progerin decrease from baseline ([2]; ProLon2, lonafarnib monotherapy 150 mg/m^2, dosing period, N=26, p<0.0001): 36.7% | time to significant decrease of plasma progerin levels ([2]; lonafarnib therapy, HGPS patients): ≤ 4 months | average decreases in progerin from baseline ([2]; long-term continuous therapy subgroup N=13, all subsequent time points, 150 mg/m^2, up to 9.8±0.5 years, p<0.0001): 56-74% | average progerin decrease from baseline ([2]; long-term continuous therapy subgroup N=13, month 4, 115 mg/m^2, p<0.0001): 48% | average decrease of trial patients' plasma progerin ([2]; on therapy, HGPS trial patients): more than 14,000 pg/mL | average on-therapy plasma progerin decrease from baseline untreated ([2]; overall, all trials, HGPS patients, p<0.0001): 38% | average on-therapy plasma progerin ([2]; overall, all trials, baseline untreated 32,726±12,659 pg/mL): 20,211±10,190 pg/mL | Cmax [3]: 2640 ng/mL | estimated increase in life expectancy ([4]; 13 patients on therapy for over 10 years): ~6 years | increase in average lifespan ([4]; from 14.5 to over 20 years of age, 13 patients on therapy over 10 years): greater than 40%
